As for `CNC(=NS(=O)(=O)N1CCOCC1)N1CC(c2ccccc2F)C(c2ccc(Cl)cc2)=N1` (stereo not shown) [Example 86, 3-(4-Chlorophenyl)-4-(2-fluorophenyl)-N-methyl-N′-((morpholin-4-yl)sulfonyl)-4,5-dihydro-1H-pyrazole-1-carboxamidine], the melting point (commonly the temperature, or range, at which the solid turns liquid) lay in the range of 165 to 168 °C.

In turn, `CNC(=NS(=O)(=O)N1CCC(O)CC1)N1CC(c2ccccc2)C(c2ccc(Cl)cc2)=N1` (stereo not shown) [Example 88, 3-(4-Chlorophenyl)-N′-((4-hydroxypiperidin-1-yl)sulfonyl)-N-methyl-4-phenyl-4,5-dihydro-1H-pyrazole-1-carboxamidine] yielded a melting point of 80 °C.

On to `CCN(CCN(C)C)S(=O)(=O)N=C(SC)N1CC(c2ccccc2)C(c2ccc(Cl)cc2)=N1` (stereo not shown) [Example 95, 3-(4-Chlorophenyl)-N-(((2-(dimethylamino)ethyl)ethylamino)sulfonyl)-4-phenyl-4,5-dihydro-1H-pyrazole-1-carboximidothioic acid methyl ester], for which the melting point stood at 158 °C.

With `CSC(=NS(=O)(=O)N1CCC(N2CCCCC2)CC1)N1CC(c2ccccc2)C(c2ccc(Cl)cc2)=N1` (stereo not shown) [Example 97, 3-(4-Chlorophenyl)-N-(([1,4′]bipiperidin-1′-yl)sulfonyl)-4-phenyl-4,5-dihydro-1H-pyrazole-1-carboximidothioic acid methyl ester], the melting point was 245 °C.

The values above are taken from patent US7608718B2, “4,5-dihydro-1H-pyrazole derivatives having potent CB1-antagonistic activity” (Solvay Pharmaceuticals B.V., priority 2001, dated 2009).
